Test results reported in patent US10626364B2, “Method for increasing the glutathione level in cells” (Merck Patent GmbH, priority 2015, dated 2020).

What was measured:
Type in all cases: cell-based
CHO suspension cell line = experiment: Bioreactor fed-batch experiment, IgG concentration in the supernatant (Cedex BioHT, turbidometric method); conditions: 15 mM SS in neutral pH main Feed-220, compared to standard (150 mM L-cysteine in separate alkaline feed); FIG. 1
Description: Bioreactor Fed-Batch Experiment in Cellvento® CHO 220 Medium and Feed 220 Using a CHO Suspension Cell Line in 1.2 L Glass Bioreactors.
15 mM S-sulfo-L-cysteine (SS) was integrated in the neutral pH main Feed-220 (n=5). Feed was added at 3% (v/v) at day 3 and 6% (v/v) at days 5, 7, 9 and 14. In the control condition, the feed without SS was added at the same ratios whereas 150 mM L-cysteine was added separately in an alkaline feed and added at following ratios 0.3% (v/v) at day 3 and 6% (v/v) at days 5, 7, 9, 14 (n=2). pH was controlled at 6.95+/−0.15. Dissolved oxygen concentration was controlled at 50% air saturation by sparging with pure oxygen and air via an open pipe sparger. Temperature was set at 37° C. and shifted from 37° C. to 33° C. on day 5 of culture. Agitation was maintained at 140 rpm. The IgG concentration in the supernatant was measured using the Cedex BioHT with a turbidometric method. It can be seen that the titer (IgG concentration) is higher with SS compared to standard.

CHO cells [1] = experiment: Intracellular reactive species in fed-batch, Carboxy-H2DCFDA staining; conditions: 15 mM SSC condition vs control condition, FIG. 2
Description: Intracellular Reactive Species in CHO Cells in a Fed-Batch Using S-Sulfocysteine Vs the Control Process
Intracellular reactive species were quantified using 6-carboxy-2′,7′-dichlorodihydrofluorescein diacetate staining (Carboxy H2DCFDA, Life Technologies). The increase in fluorescence due to oxidative reactions was determined using a Perkin Elmer fluorescence reader. For these experiments, measurements were done during fed batch experiments comparing the control condition and 15 mM SSC condition. Samples were taken every day and analyzed immediately. Briefly, 3×10^5 cells were centrifuged (1200 rpm, 5 min) and either resuspended in PBS (negative control) or loaded with 50 μM Carboxy-H2DCFDA and incubated for 20 min at 37° C. and 1000 rpm. Cells were then centrifuged, resuspended in PBS and analyzed using the plate reader (n=3 for both conditions).

CHO cells [2] = experiment: Intracellular total glutathione (GSH and GSSG) during fed-batch, UPLC; conditions: equivalent amounts of cysteine or S-sulfocysteine, compared to cells with cysteine
Description: Intracellular Total Glutathione in CHO Cells During a Fed-Batch Using S-Sulfocysteine Vs the Control Process
To quantify intracellular total glutathione, cells were washed three times in cold PBS and frozen at −20° C. for further analysis. To inhibit the activity of potential Cys-converting enzymes, 12×10^6 cells were lysed in 100 μl of phosphoSafe reagent (Merck Millipore) containing four phosphatase inhibitors: sodium fluoride, sodium vanadate, β-glycerophosphate and sodium pyrophosphate and supplemented with 20 mM iodoacetamide (alkylation of all enzyme containing one cysteine in the active site). The glutathione concentrations (GSH and GSSG) were determined via UPLC using a pre-column derivatization relying on AccQ Tag Ultra® reagent kit. Derivatization, chromatography and data analysis were carried out following the supplier recommendations (Waters, Milford, Mass.). Total glutathione was obtained by addition of GSH and GSSG and normalized to the concentration obtained in the control condition each day of the FB process.

In the case of N[C@H](CSS(=O)(=O)O)C(=O)O [S-sulfocysteine, (S)-2-amino-3-sulfosulfanylpropanoic acid], the “titer (IgG concentration)” value (CHO suspension cell line) is reported as “higher”, the “fluorescence intensity (intracellular reactive species)” value (CHO cells [1]) is reported as “lower fluorescence intensity” and the “amount of GSH in cells” value (CHO cells [2]) is reported as “higher amount of GSH”.
